# What was measured:
# Gemcitabine = compound: Nc1ccn([C@@H]2O[C@H](CO)[C@@H](O)C2(F)F)c(=O)n1 [Gemcitabine]; conditions: max 0.3 µM
# Procedure, shortened: (§1)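 Cancer cell lines were plated in 1536-well plates in 7.5 μl of DMEM/F12 or RPMI with 10% FBS and kept 24 hours at 37°C and 5% CO2 before 72 hours of dosing, with final DMSO typically 0.2%. CellTiter-Glo 2.0 luminescence measured viability, scaled between blank-well and DMSO-well means. Dose responses were fitted to a two-parameter logistic curve with a non-linear mixed effects model. This fit gives the single-agent IC50.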
# Trametinib = compound: CC(=O)Nc1cccc(-n2c(=O)n(C3CC3)c(=O)c3c(Nc4ccc(I)cc4F)n(C)c(=O)c(C)c32)c1 [Trametinib]; conditions: max 1 µM
# Procedure, shortened: as §1
# Prexasertib = compound: COc1cccc(OCCCN)c1-c1cc(Nc2cnc(C#N)cn2)n[nH]1 [Prexasertib]; conditions: max 1 µM
# Procedure, shortened: as §1
# Gefitinib = compound: COc1cc2ncnc(Nc3ccc(F)c(Cl)c3)c2cc1OCCCN1CCOCC1 [Gefitinib]; conditions: max 10 µM
# Procedure, shortened: as §1
# AZD1775 = compound: C=CCn1c(=O)c2cnc(Nc3ccc(N4CCN(C)CC4)cc3)nc2n1-c1cccc(C(C)(C)O)n1 [AZD1775]; conditions: max 3 µM
# Procedure, shortened: as §1
# AZD7648 = compound: Cc1cc2ncnn2cc1Nc1ncc2c(n1)n(C1CCOCC1)c(=O)n2C [AZD7648]; conditions: max 10 µM
# Procedure, shortened: as §1
# SN-38 = compound: CCc1c2c(nc3ccc(O)cc13)-c1cc3c(c(=O)n1C2)COC(=O)[C@]3(O)CC [SN-38]; conditions: max 0.3 µM
# Procedure, shortened: as §1
# SG3199 = compound: CC1=CN2[C@@H](C1)C=NC3=CC(=C(C=C3C2=O)OC)OCCCCCOC4=C(C=C5C(=C4)N=C[C@@H]6CC(=CN6C5=O)C)OC [SG3199]; conditions: max 0.001 µM
# Procedure, shortened: as §1
# SRA737 = compound: N#Cc1cnc(Nc2cc(NC[C@H]3CNCCO3)c(C(F)(F)F)cn2)cn1 [SRA737]; conditions: max 10 µM
# Procedure, shortened: as §1
# Lapatinib = compound: CS(=O)(=O)CCNCc1ccc(-c2ccc3ncnc(Nc4ccc(OCc5cccc(F)c5)c(Cl)c4)c3c2)o1 [Lapatinib]; conditions: max 10 µM
# Procedure, shortened: as §1
# Crizotinib = compound: C[C@@H](Oc1cc(-c2cnn(C3CCNCC3)c2)cnc1N)c1c(Cl)ccc(F)c1Cl [Crizotinib]; conditions: max 10 µM
# Procedure, shortened: as §1
# AZD2811 = compound: CCN(CCO)CCCOc1ccc2c(Nc3cc(CC(=O)Nc4cccc(F)c4)[nH]n3)ncnc2c1 [AZD2811]; conditions: max 1 µM
# Procedure, shortened: as §1
# AZD6738 = compound: C[C@@H]1COCCN1C2=NC(=NC(=C2)C3(CC3)[S@](=N)(=O)C)C4=C5C=CNC5=NC=C4 [AZD6738]; conditions: max 10 µM
# Procedure, shortened: as §1
# 5-Fluorouracil = compound: O=c1[nH]cc(F)c(=O)[nH]1 [5-Fluorouracil]; conditions: max 20 µM
# Procedure, shortened: as §1
# AZD1390 = compound: CC(C)n1c(=O)n(C)c2cnc3cc(F)c(-c4ccc(OCCCN5CCCCC5)nc4)cc3c21 [AZD1390]; conditions: max 0.3 µM
# Procedure, shortened: as §1
# AZD5991 = compound: Cc1c2c(nn1C)CSCc1cc(n(C)n1)CSc1cc(c3ccccc3c1)OCCCc1c(C(=O)O)n(C)c3c-2c(Cl)ccc13 [AZD5991]; conditions: max 1 µM
# Procedure, shortened: as §1
# Carboplatin = compound: C1CC(C1)(C(=O)[O-])C(=O)[O-].N.N.[Pt+2] [Carboplatin]; conditions: max 10 µM
# Procedure, shortened: as §1
# AZD5153 = compound: COc1nnc2ccc(N3CCC(c4ccc(OCCN5CCN(C)C(=O)[C@H]5C)cc4)CC3)nn12 [AZD5153]; conditions: max 1 µM
# Procedure, shortened: as §1
# AZD0156 = compound: CN(C)CCCOc1ccc(-c2ccc3ncc4c(c3c2)n(C2CCOCC2)c(=O)n4C)cn1 [AZD0156]; conditions: max 3 µM
# Procedure, shortened: as §1
# [1] = compound: O=C(Nc1ccc2[nH]nc(-c3ccncc3)c2c1)[C@@H]1CCN(CC(=O)N2CCN(c3ccc(-c4ncccn4)cc3)CC2)C1; conditions: max 5 µM
# Procedure, shortened: as §1
# Venetoclax = compound: CC1(C)CCC(CN2CCN(c3ccc(C(=O)NS(=O)(=O)c4ccc(NCC5CCOCC5)c([N+](=O)[O-])c4)c(Oc4cnc5[nH]ccc5c4)c3)CC2)=C(c2ccc(Cl)cc2)C1 [Venetoclax]; conditions: max 1 µM
# Procedure, shortened: as §1
# Savolitinib = compound: C[C@@H](c1ccc2nccn2c1)n1nnc2ncc(-c3cnn(C)c3)nc21 [Savolitinib]; conditions: max 1 µM
# Procedure, shortened: as §1
# Selumetinib = compound: Cn1cnc2c(F)c(Nc3ccc(Br)cc3Cl)c(C(=O)NOCCO)cc21 [Selumetinib]; conditions: max 10 µM
# Procedure, shortened: as §1
# Doxorubicin = compound: COc1cccc2c1C(=O)c1c(O)c3c(c(O)c1C2=O)C[C@@](O)(C(=O)CO)C[C@@H]3O[C@H]1C[C@H](N)[C@H](O)[C@H](C)O1 [Doxorubicin]; conditions: max 1 µM
# Procedure, shortened: as §1
# Paclitaxel = compound: CC(=O)O[C@H]1C(=O)[C@@]2(C)[C@H]([C@H](OC(=O)c3ccccc3)[C@]3(O)C[C@H](OC(=O)[C@H](O)[C@@H](NC(=O)c4ccccc4)c4ccccc4)C(C)=C1C3(C)C)[C@]1(OC(C)=O)CO[C@@H]1C[C@@H]2O [Paclitaxel]; conditions: max 3 µM
# Procedure, shortened: as §1
# AZD4320 = compound: CN(CC[C@H](CSC1=CC=CC=C1)NC2=C(C=C(C=C2)S(=O)(=O)NC(=O)C3=CC=C(C=C3)N4CCC(CC4)[C@H](C5=CC=CC=C5C6=CC=C(C=C6)Cl)O)S(=O)(=O)C(F)(F)F)CCO [AZD4320]; conditions: max 1 µM
# Procedure, shortened: as §1
# Alisertib = compound: COc1cc(Nc2ncc3c(n2)-c2ccc(Cl)cc2C(c2c(F)cccc2OC)=NC3)ccc1C(=O)O [Alisertib]; conditions: max 10 µM
# Procedure, shortened: as §1
# Olaparib = compound: O=C(c1cc(Cc2n[nH]c(=O)c3ccccc23)ccc1F)N1CCN(C(=O)C2CC2)CC1 [Olaparib]; conditions: max 10 µM
# Procedure, shortened: as §1
# Taselisib = compound: Cc1nc(-c2cn3c(n2)-c2ccc(-c4cnn(C(C)(C)C(N)=O)c4)cc2OCC3)n(C(C)C)n1 [Taselisib]; conditions: max 10 µM
# Procedure, shortened: as §1
# AZD8186 = compound: C[C@@H](Nc1cc(F)cc(F)c1)c1cc(C(=O)N(C)C)cc2c(=O)cc(N3CCOCC3)oc12 [AZD8186]; conditions: max 10 µM
# Procedure, shortened: as §1
# Palbociclib = compound: CC(=O)c1c(C)c2cnc(Nc3ccc(N4CCNCC4)cn3)nc2n(C2CCCC2)c1=O [Palbociclib]; conditions: max 10 µM
# Procedure, shortened: as §1
# MK-2206 = compound: NC1(c2ccc(-c3nc4ccn5c(=O)[nH]nc5c4cc3-c3ccccc3)cc2)CCC1 [MK-2206]; conditions: max 10 µM
# Procedure, shortened: as §1
# Dasatinib = compound: CC1=C(C(=CC=C1)Cl)NC(=O)C2=CN=C(S2)NC3=CC(=NC(=N3)C)N4CCN(CC4)CCO [Dasatinib]; conditions: max 2 µM
# Procedure, shortened: as §1
# Etoposide = compound: COc1cc([C@@H]2c3cc4c(cc3[C@@H](O[C@@H]3O[C@@H]5CO[C@@H](C)O[C@H]5[C@H](O)[C@H]3O)[C@H]3COC(=O)[C@H]23)OCO4)cc(OC)c1O [Etoposide]; conditions: max 10 µM
# Procedure, shortened: as §1
# AZD5363 = compound: C1CN(CCC1(C(=O)N[C@@H](CCO)C2=CC=C(C=C2)Cl)N)C3=NC=NC4=C3C=CN4 [AZD5363]; conditions: max 10 µM
# Procedure, shortened: as §1
Cell Line,"IC50, cell viability 72 h (Gemcitabine)","IC50, cell viability 72 h (Trametinib)","IC50, cell viability 72 h (Prexasertib)","IC50, cell viability 72 h (Gefitinib)","IC50, cell viability 72 h (AZD1775)","IC50, cell viability 72 h (AZD7648)","IC50, cell viability 72 h (SN-38)","IC50, cell viability 72 h (SG3199)","IC50, cell viability 72 h (SRA737)","IC50, cell viability 72 h (Lapatinib)","IC50, cell viability 72 h (Crizotinib)","IC50, cell viability 72 h (AZD2811)","IC50, cell viability 72 h (AZD6738)","IC50, cell viability 72 h (5-Fluorouracil)","IC50, cell viability 72 h (AZD1390)","IC50, cell viability 72 h (AZD5991)","IC50, cell viability 72 h (Carboplatin)","IC50, cell viability 72 h (AZD5153)","IC50, cell viability 72 h (AZD0156)","IC50, cell viability 72 h [1]","IC50, cell viability 72 h (Venetoclax)","IC50, cell viability 72 h (Savolitinib)","IC50, cell viability 72 h (Selumetinib)","IC50, cell viability 72 h (Doxorubicin)","IC50, cell viability 72 h (Paclitaxel)","IC50, cell viability 72 h (AZD4320)","IC50, cell viability 72 h (Alisertib)","IC50, cell viability 72 h (Olaparib)","IC50, cell viability 72 h (Taselisib)","IC50, cell viability 72 h (AZD8186)","IC50, cell viability 72 h (Palbociclib)","IC50, cell viability 72 h (MK-2206)","IC50, cell viability 72 h (Dasatinib)","IC50, cell viability 72 h (Etoposide)","IC50, cell viability 72 h (AZD5363)"
D-263MG (Glioblastoma),> 300 nM,> 1000 nM,125 nM,> 10000 nM,2490 nM,> 10000 nM,114 nM,> 1 nM,> 10000 nM,> 10000 nM,> 10000 nM,> 1000 nM,7850 nM,> 20000 nM,> 300 nM,> 1000 nM,> 10000 nM,> 1000 nM,> 3000 nM,> 5000 nM,> 1000 nM,> 1000 nM,> 10000 nM,858 nM,76.1 nM,> 1000 nM,7080 nM,> 10000 nM,> 10000 nM,> 10000 nM,> 10000 nM,> 10000 nM,> 2000 nM,> 10000 nM,> 10000 nM
EFM-19 (Breast Carcinoma),> 300 nM,> 1000 nM,> 1000 nM,> 10000 nM,2090 nM,> 10000 nM,288 nM,> 1 nM,> 10000 nM,> 10000 nM,> 10000 nM,> 1000 nM,> 10000 nM,> 20000 nM,> 300 nM,> 1000 nM,> 10000 nM,> 1000 nM,> 3000 nM,> 5000 nM,> 1000 nM,> 1000 nM,> 10000 nM,> 1000 nM,26.9 nM,> 1000 nM,> 10000 nM,> 10000 nM,564 nM,> 10000 nM,> 10000 nM,> 10000 nM,> 2000 nM,> 10000 nM,> 10000 nM
EW-24 (Ewing's Sarcoma),31 nM,> 1000 nM,120 nM,> 10000 nM,> 3000 nM,> 10000 nM,12.9 nM,> 1 nM,8420 nM,> 10000 nM,> 10000 nM,> 1000 nM,> 10000 nM,> 20000 nM,> 300 nM,> 1000 nM,> 10000 nM,> 1000 nM,> 3000 nM,> 5000 nM,> 1000 nM,> 1000 nM,> 10000 nM,> 1000 nM,255 nM,204 nM,> 10000 nM,> 10000 nM,2450 nM,> 10000 nM,> 10000 nM,> 10000 nM,> 2000 nM,5330 nM,> 10000 nM
EoL-1-cell (Acute Myeloid Leukemia),6.7 nM,15.5 nM,4.87 nM,> 10000 nM,158 nM,> 10000 nM,5.99 nM,> 1 nM,–,> 10000 nM,2290 nM,9.92 nM,765 nM,3960 nM,> 300 nM,60.6 nM,> 10000 nM,41.3 nM,> 3000 nM,506 nM,61.8 nM,> 1000 nM,1550 nM,69.1 nM,4.12 nM,8.51 nM,42.8 nM,> 10000 nM,6190 nM,> 10000 nM,4640 nM,4050 nM,5.61 nM,157 nM,3190 nM
Hs-766T (Pancreatic Carcinoma),> 300 nM,113 nM,163 nM,> 10000 nM,> 3000 nM,> 10000 nM,> 300 nM,> 1 nM,> 10000 nM,> 10000 nM,> 10000 nM,> 1000 nM,> 10000 nM,> 20000 nM,> 300 nM,> 1000 nM,> 10000 nM,> 1000 nM,> 3000 nM,> 5000 nM,> 1000 nM,> 1000 nM,5430 nM,> 1000 nM,> 3000 nM,> 1000 nM,> 10000 nM,> 10000 nM,> 10000 nM,> 10000 nM,> 10000 nM,> 10000 nM,> 2000 nM,> 10000 nM,> 10000 nM

# Reference: the supplement of paper PMC11061612
